Test results: patent US11091476B2, “Protein kinase inhibitors, preparation method and medical use thereof” (Gan & Lee Pharmaceuticals, priority 2015, dated 2021)
pIC50: −log10 of the molar value.

Key:
[1] = target: CDK4/CyclinE1 (Homo sapiens, UniProt P11802); details: read-out: CDK4/CyclinE1 IC50
Method: Measurement of CDK kinase inhibitory activity of the compounds of this disclosure.
In vitro inhibitory effect of the compounds of the disclosure on CDK (CDK1, CDK4 and CDK6) kinase activity was tested by the following method.
1.1 Instrument and Kit Information
1.2 Experimental Preparation • 1.2.1 Preparation of Kinase Reaction Buffer I: The 5×Reaction Buffer A (Promega; V307A-C) provided in the kit was mixed and diluted with MILLI-Q® H2O and 0.1 M DTT (dithiothreitol) to give 4× kinase buffer, and then MILLI-Q® H2O was further added to finally formulate the solution into 1× Kinase buffer.
The final concentration was 50 μM. • b. 40 μl of kinase reaction buffer II was added into B2 to B10 of a 96-well plate, and 50 μl of the above solution was added into B1; • c. […]
1.3 Experimental process: • 1.3.1: 2 μl of compound solutions of various concentrations were taken, added to a 384-well plate, and centrifuged 3 minutes; • 1.3.2: 4 μl of kinase solution was added to each well, centrifuged at 5000 rpm and 18° C. for 10 minutes, and shaken on a plate shaker for 10 minutes; • 1.3.3: 4 μl of mixed solution of substrate and ATP was added to each well, centrifuged at 5000 rpm and 18° C. for 10 minutes, and shaken on a plate shaker at 37° C. for 90 minutes; • 1.3.4: The 384-well plate was taken out, and allowed to stand to room temperature; • 1.3.5: 10 μl of ADP-GLO™ reagent was added to each well, centrifuged at 5000 rpm and 18° C. for 18 minutes, and shaken on a plate shaker at 25° C. for 40 minutes, and then the reaction was stopped; • 1.3.6: 20 μl of kinase detection reagent was added to each well, centrifuged at 5000 rpm and 18° C. for 10 minutes, and shaken on a plate shaker at 25° C. for 30 minutes; and • 1.3.7: M1000pro MICROPLATE READER was used to read […] values.
(§1) The inhibition rate of each compound at each concentration point was calculated by the formula as follows and curve fitting was performed by GraphPad Prism 5 software to obtain the IC50 value.

[2] = system: Human breast cancer cells MDA-MB-231; test: Inhibition of proliferation of human breast cancer cell MDA-MB-231 (DAPI, In Cell Analyzer); format: cell-based; details: for pIC50: Homo sapiens, MDA-MB-231, 72 hours incubation, read-out: IC50, proliferation of human breast cancer cell MDB-MA-231; for Inhibitory activity on proliferation of the MDA-MB-231 cell line, in words: experimental conclusion
Method: 200 μl of medium containing 0.2% DMSO (dimethylsulfoxide) was added into B2 to B10 of a 96-well plate; 300 μl of the above solution was added into B1; and • c. 100 μl of solution was taken from well B1, added into B2, and mixed well; then 100 μl of the resulting solution was taken and added into B3, and dilution was carried out in sequence to B9, so as to obtain standard solutions diluted by 3-fold sequentially. • (2) Preparation of Test Compound Solutions • a. […] 200 μl of medium containing 0.2% DMSO (dimethylsulfoxide) was added into H2 to H10 of the 96-well plate; and 300 μl of the above solution was added into H1; and • c. 100 μl of solution was taken from well H1, added into H2, and mixed well; then 100 μl of the resulting solution was taken and added into H3, and dilution was carried out in sequence to […], so as to obtain test compound solutions diluted by 3-fold sequentially.
2.3 Experimental Process: • 2.3.1: MDA-MB-231 cells were inoculated into a 96-well cell plate with black transparent bottom at 4000 cells/100 μl/well, and cultured overnight at 37° C.; • 2.3.2: The above samples were added at 100 μl/well to a culture plate inoculated with cells, gently patted to mix well, and incubated at 37° C. for 72 hours; • 2.3.3: Fixation: the cell plate was taken out, the medium was removed, and 50 μl of 4% paraformaldehyde was added per well to fix for 10 minutes; • 2.3.4: 50 μl of 0.1M glycine was added to neutralize for 10 minutes; • 2.3.5: 1×PBS (phosphate buffer pH 7.2) was used to wash twice; • 2.3.6: Permeabilization: 50 μl of 0.2% TRITON-X®100 (Triton) was added per well, and permeabilization was carried out at room temperature for 10 minutes; • 2.3.7: 1×PBS (Phosphate buffer pH 7.2) was used to wash twice; • 2.3.8: 5 mg/mL DAPI stock solution was diluted at a ratio of 1:5000 (final concentration of 1 μg/ml), and staining was performed at room temperature for 20 minutes; • 2.3.9: 1×PBS (Phosphate buffer pH 7.2) was used to wash three times; and • 2.3.10: Scanning and analysis were performed by an IN cell analyzer 2200.
as §1

Sequence of CDK4/CyclinE1 (P11802 2-303 limits assumed): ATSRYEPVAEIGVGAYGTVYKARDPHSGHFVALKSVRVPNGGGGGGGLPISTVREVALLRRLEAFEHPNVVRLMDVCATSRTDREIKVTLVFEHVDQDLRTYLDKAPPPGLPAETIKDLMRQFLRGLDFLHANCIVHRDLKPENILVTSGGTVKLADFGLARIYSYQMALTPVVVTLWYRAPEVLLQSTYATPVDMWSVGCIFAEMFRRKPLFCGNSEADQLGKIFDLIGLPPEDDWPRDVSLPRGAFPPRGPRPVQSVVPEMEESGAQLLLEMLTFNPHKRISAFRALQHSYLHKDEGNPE

Structure (SMILES) | pIC50 [1] | pIC50 [2] | Inhibitory activity on proliferation of the MDA-MB-231 cell line, in words [2]
CCN1CCC(c2ccc(Nc3ncc(F)c(-c4cc(F)c5c(c4)C4(CCCC4)C(C)=N5)n3)nc2)CC1 [Example 12, N-(5-(1-ethylpiperidin-4-yl)pyridin-2-yl)-5-fluoro-4-(7′-fluoro-2′-methylspiro [cyclopentane-1,3′-indol]-5′-yl)pyrimidine-2-amino] | 8.35 | 6.74 | significant inhibitory activity
CC1=Nc2c(F)cc(-c3nc(Nc4ccc(C5CCN(C)CC5)cn4)ncc3F)cc2C12CCCC2 [Example 17, 5-Fluoro-4-(7′-fluoro-2′-methylspiro[cyclopentane-1,3′-indol]-5′-yl)-N-(5-(1-methylpiperidin-4-yl)pyridin-2-yl)pyrimidine-2-amino] | 8.58 | 6.96 | significant inhibitory activity
CCN1CCN(Cc2ccc(Nc3ncc(F)c(-c4cc(F)c5nc(C)n(C(C)C)c5c4)n3)nc2)CC1 [LY2835219, reference compound] |  | 6.64 | 
